Test results: the supplement of paper PMC11061612

What was measured:
[1] = tested on: NB12 (Neuroblastoma); experiment: Bliss excess, mean over the matrix (fraction); higher = more synergy
Procedure, shortened: (§1)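 Bliss excess equals the observed combination effect minus the expected value EA + EB − EA·EB, where EA and EB are the effects of each agent alone. Combination Emax is the second-highest inhibition within the matrix. Inhibition was scaled from CellTiter-Glo 2.0 luminescence, with 0 set by vehicle wells and 1 by blank wells, after 72 hours of two-drug dosing of cells plated in 1536-well plates.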

[2] = tested on: SK-MEL-2 (Melanoma); experiment: as above
Procedure, shortened: as §1

[3] = tested on: NB12 (Neuroblastoma); experiment: combination Emax (second highest fraction inhibited in the dose matrix, 72 h); higher = more inhibition; extreme values may be limits of the assay
Procedure, shortened: as §1

[4] = tested on: CAL-62 (Thyroid Gland Carcinoma); experiment: as above
Procedure, shortened: as §1

[5] = tested on: OAW-42 (Ovarian Carcinoma); experiment: as above
Procedure, shortened: as §1

[6] = tested on: NCI-H23 (Lung Adenocarcinoma); experiment: as above
Procedure, shortened: as §1

[7] = tested on: LXF-289 (Lung Adenocarcinoma); experiment: as above
Procedure, shortened: as §1

[8] = tested on: LB996-RCC (Kidney Carcinoma); experiment: as above
Procedure, shortened: as §1

[9] = tested on: WM793B (Melanoma); experiment: as above
Procedure, shortened: as §1

[10] = tested on: SK-MEL-2 (Melanoma); experiment: as above
Procedure, shortened: as §1

COc1nnc2ccc(N3CCC(c4ccc(OCCN5CCN(C)C(=O)[C@H]5C)cc4)CC3)nn12 [AZD5153] + CCN(CCO)CCCOc1ccc2c(Nc3cc(CC(=O)Nc4cccc(F)c4)[nH]n3)ncnc2c1 [AZD2811] (first compound max 1 µM, 7x7, partner max 1 µM)
Bliss excess [1]: 0.0269
Bliss excess [2]: -0.0912
combination Emax [3]: 0.937
combination Emax [4]: 0.774
combination Emax [5]: 0.459
combination Emax [6]: 0.666
combination Emax [7]: 0.82
combination Emax [8]: 0.534
combination Emax [9]: 0.641
combination Emax [10]: 0.485

NC1(C(=O)N[C@@H](CCO)c2ccc(Cl)cc2)CCN(c2ncnc3[nH]ccc23)CC1 [Capivasertib] + CCN(CCO)CCCOc1ccc2c(Nc3cc(CC(=O)Nc4cccc(F)c4)[nH]n3)ncnc2c1 [AZD2811] (first compound max 10 µM, 7x7, partner max 1 µM)
Bliss excess [1]: -0.0279
Bliss excess [2]: -0.0383
combination Emax [3]: 0.783
combination Emax [4]: 0.308
combination Emax [5]: 0.48
combination Emax [6]: 0.387
combination Emax [7]: 0.679
combination Emax [8]: 0.71
combination Emax [9]: 0.527
combination Emax [10]: 0.0759

CS(=O)(=O)CCNCc1ccc(-c2ccc3ncnc(Nc4ccc(OCc5cccc(F)c5)c(Cl)c4)c3c2)o1 [Lapatinib] + NC1(c2ccc(-c3nc4ccn5c(=O)[nH]nc5c4cc3-c3ccccc3)cc2)CCC1 [MK-2206] (first compound max 10 µM, 7x7, partner max 10 µM)
Bliss excess [1]: -0.0253
Bliss excess [2]: -0.0096
combination Emax [3]: 0.843
combination Emax [4]: 0.721
combination Emax [5]: 0.819
combination Emax [6]: 0.338
combination Emax [10]: 0.692

Cn1cnc2c(F)c(Nc3ccc(Br)cc3Cl)c(C(=O)NOCCO)cc21 [Selumetinib] + CC(C)n1c(=O)n(C)c2cnc3cc(F)c(-c4ccc(OCCCN5CCCCC5)nc4)cc3c21 [AZD1390] (first compound max 10 µM, 7x7, partner max 0.3 µM)
Bliss excess [1]: -0.0215
Bliss excess [2]: -0.0602
combination Emax [3]: 0.106
combination Emax [4]: 0.219
combination Emax [5]: 0.192
combination Emax [6]: 0.339
combination Emax [7]: 0.146
combination Emax [8]: 0.181
combination Emax [9]: 0.503
combination Emax [10]: 0.739

C[C@@H](c1ccc2nccn2c1)n1nnc2ncc(-c3cnn(C)c3)nc21 [Savolitinib] + Cc1c2c(nn1C)CSCc1cc(n(C)n1)CSc1cc(c3ccccc3c1)OCCCc1c(C(=O)O)n(C)c3c-2c(Cl)ccc13 [AZD5991] (first compound max 1 µM, 7x7, partner max 1 µM)
Bliss excess [1]: -0.0075
Bliss excess [2]: -0.023
combination Emax [3]: 0.219
combination Emax [4]: 0.131
combination Emax [5]: 0.21
combination Emax [6]: 0.915
combination Emax [7]: 0.306
combination Emax [8]: 0.125
combination Emax [9]: 0.168
combination Emax [10]: 0.901

CC1(C)CCC(CN2CCN(c3ccc(C(=O)NS(=O)(=O)c4ccc(NCC5CCOCC5)c([N+](=O)[O-])c4)c(Oc4cnc5[nH]ccc5c4)c3)CC2)=C(c2ccc(Cl)cc2)C1 [Venetoclax] + C[C@@H]1COCCN1C2=NC(=NC(=C2)C3(CC3)[S@](=N)(=O)C)C4=C5C=CNC5=NC=C4 [AZD6738] (first compound max 1 µM, 7x7, partner max 10 µM)
combination Emax [4]: 0.83
combination Emax [5]: 0.561
combination Emax [6]: 0.822
combination Emax [7]: 0.554
combination Emax [8]: 0.654
combination Emax [9]: 0.814

CC1(C)CCC(CN2CCN(c3ccc(C(=O)NS(=O)(=O)c4ccc(NCC5CCOCC5)c([N+](=O)[O-])c4)c(Oc4cnc5[nH]ccc5c4)c3)CC2)=C(c2ccc(Cl)cc2)C1 [Venetoclax] + CN(C)CCCOc1ccc(-c2ccc3ncc4c(c3c2)n(C2CCOCC2)c(=O)n4C)cn1 [AZD0156] (first compound max 1 µM, 7x7, partner max 1 µM)
combination Emax [4]: 0.465
combination Emax [5]: 0.204
combination Emax [6]: 0.122
combination Emax [7]: 0.245
combination Emax [8]: 0.222
combination Emax [9]: 0.244

CN(CCO)CC[C@H](CSc1ccccc1)Nc1ccc(S(=O)(=O)NC(=O)c2ccc(N3CCC([C@@H](O)c4ccccc4-c4ccc(Cl)cc4)CC3)cc2)cc1S(=O)(=O)C(F)(F)F [AZD4320] + C[C@@H]1COCCN1C2=NC(=NC(=C2)C3(CC3)[S@](=N)(=O)C)C4=C5C=CNC5=NC=C4 [AZD6738] (first compound max 1 µM, 7x7, partner max 10 µM)
combination Emax [4]: 0.936
combination Emax [5]: 0.748
combination Emax [6]: 0.85
combination Emax [7]: 0.689
combination Emax [8]: 0.837
combination Emax [9]: 0.844

CN(CCO)CC[C@H](CSc1ccccc1)Nc1ccc(S(=O)(=O)NC(=O)c2ccc(N3CCC([C@@H](O)c4ccccc4-c4ccc(Cl)cc4)CC3)cc2)cc1S(=O)(=O)C(F)(F)F [AZD4320] + C[C@@H](Nc1cc(F)cc(F)c1)c1cc(C(=O)N(C)C)cc2c(=O)cc(N3CCOCC3)oc12 [AZD8186] (first compound max 1 µM, 7x7, partner max 3 µM)
combination Emax [4]: 0.925
combination Emax [5]: 0.414
combination Emax [6]: 0.335
combination Emax [7]: 0.348
combination Emax [8]: 0.654
combination Emax [9]: 0.531

CC(=O)Nc1cccc(-n2c(=O)n(C3CC3)c(=O)c3c(Nc4ccc(I)cc4F)n(C)c(=O)c(C)c32)c1 [Trametinib] + Cc1nc(-c2cn3c(n2)-c2ccc(-c4cnn(C(C)(C)C(N)=O)c4)cc2OCC3)n(C(C)C)n1 [Taselisib] (first compound max 1 µM, 7x7, partner max 10 µM)
combination Emax [4]: 0.765
combination Emax [5]: 0.969
combination Emax [6]: 0.686
combination Emax [7]: 0.963
combination Emax [8]: 0.955
combination Emax [9]: 0.855

CC1(C)CCC(CN2CCN(c3ccc(C(=O)NS(=O)(=O)c4ccc(NCC5CCOCC5)c([N+](=O)[O-])c4)c(Oc4cnc5[nH]ccc5c4)c3)CC2)=C(c2ccc(Cl)cc2)C1 [Venetoclax] + C=CCn1c(=O)c2cnc(Nc3ccc(N4CCN(C)CC4)cc3)nc2n1-c1cccc(C(C)(C)O)n1 [AZD1775] (first compound max 1 µM, partner max 1 µM)
combination Emax [4]: 0.849
combination Emax [5]: 0.436
combination Emax [6]: 0.855
combination Emax [7]: 0.575
combination Emax [8]: 0.758
combination Emax [9]: 0.531

CC1(C)CCC(CN2CCN(c3ccc(C(=O)NS(=O)(=O)c4ccc(NCC5CCOCC5)c([N+](=O)[O-])c4)c(Oc4cnc5[nH]ccc5c4)c3)CC2)=C(c2ccc(Cl)cc2)C1 [Venetoclax] + Cn1cnc2c(F)c(Nc3ccc(Br)cc3Cl)c(C(=O)NOCCO)cc21 [Selumetinib] (first compound max 1 µM, 7x7, partner max 3 µM)
combination Emax [4]: 0.256
combination Emax [5]: 0.147
combination Emax [6]: 0.264
combination Emax [7]: 0.183
combination Emax [8]: 0.156
combination Emax [9]: 0.42

CC1(C)CCC(CN2CCN(c3ccc(C(=O)NS(=O)(=O)c4ccc(NCC5CCOCC5)c([N+](=O)[O-])c4)c(Oc4cnc5[nH]ccc5c4)c3)CC2)=C(c2ccc(Cl)cc2)C1 [Venetoclax] + CCN(CCO)CCCOc1ccc2c(Nc3cc(CC(=O)Nc4cccc(F)c4)[nH]n3)ncnc2c1 [AZD2811] (first compound max 1 µM, 7x7, partner max 1 µM)
combination Emax [4]: 0.252
combination Emax [5]: 0.204
combination Emax [6]: 0.184
combination Emax [7]: 0.389
combination Emax [8]: 0.339
combination Emax [9]: 0.258

CN(CCO)CC[C@H](CSc1ccccc1)Nc1ccc(S(=O)(=O)NC(=O)c2ccc(N3CCC([C@@H](O)c4ccccc4-c4ccc(Cl)cc4)CC3)cc2)cc1S(=O)(=O)C(F)(F)F [AZD4320] + CN(C)CCCOc1ccc(-c2ccc3ncc4c(c3c2)n(C2CCOCC2)c(=O)n4C)cn1 [AZD0156] (first compound max 1 µM, 7x7, partner max 1 µM)
combination Emax [4]: 0.228
combination Emax [5]: 0.261
combination Emax [6]: 0.104
combination Emax [7]: 0.182
combination Emax [8]: 0.227
combination Emax [9]: 0.251

Cc1c2c(nn1C)CSCc1cc(n(C)n1)CSc1cc(c3ccccc3c1)OCCCc1c(C(=O)O)n(C)c3c-2c(Cl)ccc13 [AZD5991] + CC1(C)CCC(CN2CCN(c3ccc(C(=O)NS(=O)(=O)c4ccc(NCC5CCOCC5)c([N+](=O)[O-])c4)c(Oc4cnc5[nH]ccc5c4)c3)CC2)=C(c2ccc(Cl)cc2)C1 [Venetoclax] (first compound max 1 µM, 7x7, partner max 1 µM)
combination Emax [4]: 0.148
combination Emax [5]: 0.37
combination Emax [6]: 0.899
combination Emax [7]: 0.296
combination Emax [8]: 0.199
combination Emax [9]: 0.261

CC1(C)CCC(CN2CCN(c3ccc(C(=O)NS(=O)(=O)c4ccc(NCC5CCOCC5)c([N+](=O)[O-])c4)c(Oc4cnc5[nH]ccc5c4)c3)CC2)=C(c2ccc(Cl)cc2)C1 [Venetoclax] + C1CN(CCC1(C(=O)N[C@@H](CCO)C2=CC=C(C=C2)Cl)N)C3=NC=NC4=C3C=CN4 [Capivasertib] (first compound max 1 µM, 7x7, partner max 3 µM)
combination Emax [4]: 0.172
combination Emax [5]: 0.368
combination Emax [6]: 0.119
combination Emax [7]: 0.204
combination Emax [8]: 0.471
combination Emax [9]: 0.295
